Laboratory results reported in PubChem BioAssay AID248 (DTP/NCI, 2004).
“And” between values parts separate entries of the source, which are not always exact repeats. Equal values may be shown once. Toxic doses and inconclusive results are not listed. Cut-off read from the data, not from the text of the source: active = T/C of 150% or more; inactive = T/C below 125%.

System: L1210 leukemia ip in BDF1 mice, survival T/C
Assay: NCI In Vivo Anticancer Drug Screen. Data for tumor model L1210 Leukemia (intraperitoneal) in B6D2F1 (BDF1) mice
Conditions: endpoint: mean survival time, higher = longer survival
Experimental: The antitumor activity of compounds was measured in mice bearing transplantable tumors. Survival or tumor size were measured and the results are expressed as the measurement made in the treated group (T) divided by the measurement made in the vehicle treated control group (C). The tumor model used in this assay is L1210 Leukemia (intraperitoneal) in B6D2F1 (BDF1) mice

[1] = dose: 100.0 mg/kg/injection, schedule: Q01DX009 (ip), vehicle: saline with Tween-80
[2] = dose: 200.0 mg/kg/injection, schedule: Q01DX009 (ip), vehicle: saline with Tween-80
[3] = dose: 400.0 mg/kg/injection, schedule: Q01DX009 (ip), vehicle: saline with Tween-80
[4] = dose: 100.0 mg/kg/injection, schedule: Q01DX009 (ip), vehicle: saline
[5] = dose: 100.0 mg/kg/injection, schedule: Q01DX009 (ip), vehicle: Klucel (hydroxypropylcellulose) (HPC)
[6] = dose: 100.0 mg/kg/injection, schedule: Q04DX003 (ip), vehicle: Klucel (hydroxypropylcellulose) (HPC)
[7] = dose: 100.0 mg/kg/injection, schedule: Q04DX003 (ip), vehicle: saline with Tween-80
[8] = dose: 200.0 mg/kg/injection, schedule: Q01DX009 (ip), vehicle: Klucel (hydroxypropylcellulose) (HPC)
[9] = dose: 200.0 mg/kg/injection, schedule: Q04DX003 (ip), vehicle: Klucel (hydroxypropylcellulose) (HPC)
[10] = dose: 200.0 mg/kg/injection, schedule: Q04DX003 (ip), vehicle: saline with Tween-80
[11] = dose: 400.0 mg/kg/injection, schedule: Q01DX009 (ip), vehicle: Klucel (hydroxypropylcellulose) (HPC)
[12] = dose: 400.0 mg/kg/injection, schedule: Q04DX003 (ip), vehicle: Klucel (hydroxypropylcellulose) (HPC)
[13] = dose: 400.0 mg/kg/injection, schedule: Q04DX003 (ip), vehicle: saline with Tween-80
[14] = dose: 100.0 mg/kg/injection, schedule: Q01DX001 (ip), vehicle: saline
[15] = dose: 100.0 mg/kg/injection, schedule: Q04DX003 (ip), vehicle: saline
[16] = dose: 200.0 mg/kg/injection, schedule: Q01DX001 (ip), vehicle: saline
[17] = dose: 200.0 mg/kg/injection, schedule: Q04DX003 (ip), vehicle: saline
[18] = dose: 400.0 mg/kg/injection, schedule: Q01DX001 (ip), vehicle: saline

Measured: T/C

O=C1c2c(c(O)c3ccccc3c2O)C(=O)C2CC=CCC12 (centres undefined)
inactive: dose: 25.0 mg/kg/injection, schedule: Q01DX009 (ip), vehicle: saline with Tween-80 105 % of control | dose: 50.0 mg/kg/injection, schedule: Q01DX009 (ip), vehicle: saline with Tween-80 110 % of control | [1] 104 % of control | [2] 104 % of control | [3] 104 % of control

Cc1cccc(OCC(O)CN2CCCCC2)c1 (centres undefined)
inactive: dose: 25.0 mg/kg/injection, schedule: Q01DX009 (ip), vehicle: saline 94 % of control | dose: 50.0 mg/kg/injection, schedule: Q01DX009 (ip), vehicle: saline 102 % of control and 105 % of control | [4] 120 % of control

c1ccc(N(c2ccccc2)c2ccccc2)cc1
inactive: [5] 102 % of control | [1] 93 % of control | [6] 91 % of control | [7] 100 % of control | [8] 91 % of control | [2] 95 % of control | [9] 95 % of control | [10] 96 % of control | [11] 98 % of control | [3] 95 % of control | [12] 98 % of control | [13] 90 % of control

c1ccc(C2NC2(c2ccccc2)C2(c3ccccc3)SCCCS2)cc1 (centres undefined)
inactive: [6] 111 % of control | [9] 103 % of control | [12] 105 % of control

NCC(=O)c1ccc(O)c(O)c1
inactive: [14] 101 % of control | [4] 122 % of control | [15] 97 % of control | dose: 175.0 mg/kg/injection, schedule: Q01DX Z (ip), vehicle: methylcellulose (MC) 115 % of control | [16] 93 % of control | [17] 97 % of control | dose: 260.0 mg/kg/injection, schedule: Q01DX Z (ip), vehicle: carboxymethylcellulose (CMC) 112 % of control | dose: 260.0 mg/kg/injection, schedule: Q01DX Z (ip), vehicle: methylcellulose (MC) 121 % of control | dose: 270.0 mg/kg/injection, schedule: Q01DX Z (ip), vehicle: methylcellulose (MC) 117 % of control | [18] 104 % of control | dose: 400.0 mg/kg/injection, schedule: Q01DX009 (ip), vehicle: saline 124 % of control | dose: 400.0 mg/kg/injection, schedule: Q01DX Z (ip), vehicle: methylcellulose (MC) 112 % of control | dose: 400.0 mg/kg/injection, schedule: Q04DX003 (ip), vehicle: saline 95 % of control | dose: 600.0 mg/kg/injection, schedule: Q01DX Z (ip), vehicle: carboxymethylcellulose (CMC) 116 % of control | dose: 600.0 mg/kg/injection, schedule: Q01DX Z (ip), vehicle: methylcellulose (MC) 114 % of control | dose: 1344.0 mg/kg/injection, schedule: Q01DX Z (ip), vehicle: carboxymethylcellulose (CMC) 92 % of control

Cc1ccc(CNC(=O)NC(C)(C)C)c(C)c1
inactive: [5] 97 % of control | [8] 104 % of control | [11] 92 % of control

CC1(C)N=C(N)N=C(N)N1c1ccc(/C=C/C(=O)Nc2ccc(S(=O)(=O)F)cc2)cc1
inactive: dose: 75.0 mg/kg/injection, schedule: Q01DX001 (ip), vehicle: Klucel (hydroxypropylcellulose) (HPC) 97 % of control | dose: 150.0 mg/kg/injection, schedule: Q01DX001 (ip), vehicle: Klucel (hydroxypropylcellulose) (HPC) 92 % of control

CC1(c2ccc(F)cc2)OC(=O)c2c1ccc1ccccc21 (centres undefined)
inactive: dose: 100.0 mg/kg/injection, schedule: Q04DX002 (ip), vehicle: Klucel (hydroxypropylcellulose) (HPC) 101 % of control | dose: 200.0 mg/kg/injection, schedule: Q04DX002 (ip), vehicle: Klucel (hydroxypropylcellulose) (HPC) 94 % of control | dose: 400.0 mg/kg/injection, schedule: Q04DX002 (ip), vehicle: Klucel (hydroxypropylcellulose) (HPC) 101 % of control

CCCCN(C)N=Nc1ccc(S(N)(=O)=O)cc1
inactive: dose: 30.0 mg/kg/injection, schedule: Q01DX Z (ip), vehicle: carboxymethylcellulose (CMC) 92 % of control | dose: 60.0 mg/kg/injection, schedule: Q01DX Z (ip), vehicle: carboxymethylcellulose (CMC) 92 % of control | dose: 90.0 mg/kg/injection, schedule: Q01DX Z (ip), vehicle: carboxymethylcellulose (CMC) 105 % of control

Oc1ccccc1-n1c(-c2ccccc2)ccc1-c1ccccc1
inactive: dose: 50.0 mg/kg/injection, schedule: Q01DX001 (ip), vehicle: saline 90 % of control | [14] 98 % of control | [16] 102 % of control | [18] 98 % of control

CC1CCCC(CN=Cc2cc([N+](=O)[O-])ccc2O)[N-]1.CC1CCCC(CN=Cc2cc([N+](=O)[O-])ccc2O)[N-]1.[Ni+2] (centres undefined)
inactive: [1] 86 % of control | [7] 95 % of control | [2] 86 % of control | [10] 95 % of control | [13] 86 % of control

CNC(=O)NC1C(O)C(OC)OC2COC(c3ccccc3)OC21 (centres undefined)
inactive: [7] 92 % of control | [10] 92 % of control

CC(O)CN1c2ccccc2Sc2ccc(Cl)cc21 (centres undefined)
inactive: dose: 100.0 mg/kg/injection, schedule: Q01DX001 (ip), vehicle: carboxymethylcellulose (CMC) 97 % of control | dose: 200.0 mg/kg/injection, schedule: Q01DX001 (ip), vehicle: carboxymethylcellulose (CMC) 92 % of control | dose: 400.0 mg/kg/injection, schedule: Q01DX001 (ip), vehicle: carboxymethylcellulose (CMC) 95 % of control

CC(CCc1cccc2ccccc12)(C(=O)O)C(=O)O
inactive: dose: 100.0 mg/kg/injection, schedule: Q01DX009 (ip), vehicle: saline sonified 92 % of control | [6] 104 % of control | dose: 200.0 mg/kg/injection, schedule: Q01DX009 (ip), vehicle: saline sonified 104 % of control | [9] 100 % of control | [12] 94 % of control

Cc1cc(N)c(C)c(C)c1O
inactive: dose: 12.5 mg/kg/injection, schedule: Q04DX003 (ip), vehicle: saline with Tween-80 94 % of control | dose: 25.0 mg/kg/injection, schedule: Q04DX003 (ip), vehicle: saline with Tween-80 94 % of control | dose: 50.0 mg/kg/injection, schedule: Q04DX003 (ip), vehicle: saline with Tween-80 94 % of control | [7] 101 % of control

CCCC(CN(CCN(C)C)Cc1ccccc1)c1ccc(OC)cc1 (centres undefined)
inactive: [14] 101 % of control

Cc1cc(C)nc(N)c1
inactive: dose: 12.5 mg/kg/injection, schedule: Q04DX002 (ip), vehicle: saline 105 % of control | dose: 25.0 mg/kg/injection, schedule: Q04DX002 (ip), vehicle: saline 114 % of control

Cc1ccc2ccc3c4ccccc4ccc3[n+]2c1
inactive: dose: 10.0 mg/kg/injection, schedule: Q01DX001 (ip), vehicle: saline 102 % of control | dose: 20.0 mg/kg/injection, schedule: Q01DX001 (ip), vehicle: saline 98 % of control

CC1(C)OC2OC(C(O)CN3CC3)C(O)C2O1 (centres undefined)
inactive: dose: 24.6 mg/kg/injection, schedule: Q01DX Z (ip), vehicle: methylcellulose (MC) 104 % of control | dose: 37.0 mg/kg/injection, schedule: Q01DX Z (ip), vehicle: methylcellulose (MC) 107 % of control | dose: 56.0 mg/kg/injection, schedule: Q01DX Z (ip), vehicle: methylcellulose (MC) 99 % of control | dose: 84.0 mg/kg/injection, schedule: Q01DX Z (ip), vehicle: methylcellulose (MC) 107 % of control

CN(C(=S)Nc1ccccc1)c1cc(N2CCCC2)ccn1
inactive: [14] 98 % of control | [16] 98 % of control

[CH3][Sb]1([Br])[CH2]CC[CH2]1
inactive: [15] 93 % of control | [17] 101 % of control

Nc1nc(-c2ccccc2N=NN2CCN(N=Nc3ccccc3-c3nc(N)c4ccccc4n3)CC2)nc2ccccc12
inactive: [6] 101 % of control | [9] 96 % of control

Cc1ccc(C(CC(=O)O)CC(=O)O)c(O)c1
inactive: dose: 100.0 mg/kg/injection, schedule: Q01DX009 (ip), vehicle: gum acacia 96 % of control | dose: 100.0 mg/kg/injection, schedule: Q04DX003 (ip), vehicle: gum acacia 95 % of control | dose: 200.0 mg/kg/injection, schedule: Q01DX009 (ip), vehicle: gum acacia 93 % of control | dose: 200.0 mg/kg/injection, schedule: Q04DX003 (ip), vehicle: gum acacia 93 % of control | dose: 400.0 mg/kg/injection, schedule: Q01DX009 (ip), vehicle: gum acacia 88 % of control | dose: 400.0 mg/kg/injection, schedule: Q04DX003 (ip), vehicle: gum acacia 90 % of control
